The values below come from US6858748B1, “Treatment of colon cancer” (Research Foundation of the University of Central Florida, priority 2001, dated 2005).

For data set [1], the system named is human colon cancer cells (ATCC CCL220). Kind of data set: Cytotoxicity assay (MTS/PMS growth inhibition). The settings on record: approximately 48 hours with test compound, MTS/PMS readout, concentration not given. Type of data set: cell-based. Here is the method:
The antitumor activity against human colon cancer cells of the novel compounds (as earlier reported) was realized by the following procedure which determines the inhibitory effect of test samples on the growth of human colon cancer cells (ATCC CCL220). The CCL220 cells are grown in RPMI 1640 media+10% Fetal bovine serum+1% Antibiotic/Antimycotic for approximately 48 hours at 37° C./5% CO2 in the presence of the test compound.
Growth/Non-Growth of the cells (e.g., cell density) is determined using Promega's MTS/PMS assay system. MTS (3-(4,5-dimethylthiazol-2-yl)-5-(3-carboxymethoxyphenyl)-2-(4-sulfophenyl)-2H-tetrazolium, inner salt) is an aqueous compound that is reduced to soluble formazan by the presence of NADH formed by dehydrogenases present within the CCL220 cells. The absorbance of the formazan can be measured at 490 nm and is directly proportional to the number of living cells present in the culture. PMS (Phenazine Methosulfate) is added an electron coupling reagent and greatly increases the rate of reduction. […]
In order to establish the accuracy of this assay a Positive Control consisting of 50 μM Methotrexate should not decrease the net absorbance to less than 90% of the Negative Control (CCL220 cells are somewhat resistant to methotrexate) is utilized.

The subject of another data set is white mice. As to the kind of experiment: Animal toxicity bioassay (acute toxicity, intraperitoneal). The settings on record: 14 days observation, Litchfield and Wilkinson. Type of data set: in vivo. Here is the method:
Acute toxicity was studied on white mice of both sexes with weight ranging between 18-26 grams under intraperitoneal injection of 2% solution of tested compound in starch (the compound was dissolved in starch slime and injected) on the basis of 0.1 ml of solution per 10 g of the animal weight Each dose was tested on the group of 6 animals that were observed during 14 days period. (This method was approved by the Pharmacology committee of Russian Ministry of Health and has been widely used since 1968.) Averaged lethal dose (LD50) of the compound was computed using results of experiments on 5-7 groups of animals using method of Litchfield and Wilkinson. (Belenkii M. L. “Elements of quantative determination of the pharmacological effect,” Leningrad, 1963, 71 pages).

The subject of a further data set is Mice. The settings on record: cited from earlier work.
The next data set can be described thus: Stability in solution. Format: physicochemical. The settings on record: decomposes quickly when solution is heated or stored for a long time, forming OF-12.
Data set [2] in a line: Solubility in organic solvents. Format: physicochemical.

As usually defined, the LD50 is the dose expected to kill half of the subjects tested. Higher therefore signals a less toxic substance. On to `CCOc1ccc(C(Cl)=CC(=NN=C2c3ccccc3-c3ccccc32)C(=O)OC)cc1` [3F-19, 4-Chloro-4-(4-ethoxy-phenyl)-2-(fluoren-9-ylidene-hydrazono)-but-3-enoic acid methyl ester], for which the “percent activity against human colon cancer” value in data set [1] turned out to be 100%. Also, the LD50 with white mice is > 200 mg/kg.
For `O=c1[nH]cc(F)c(=O)[nH]1` [5-FU, fluorouracil], the “IPN-Mice LD50” value in the data set on Mice was 230 mg/kg.
On to `CCOc1ccc(C(=O)CC(O)(NN=C2c3ccccc3-c3ccccc32)C(=O)OC)cc1` (centres unmarked) [OF-13, 4-(4-Ethoxy-phenyl)-2-(N′-fluoren-9-ylidene-hydrazino)-2-hydroxy-4-oxo-butyric acid methyl ester], for which, in data set [1], the “percent activity against human colon cancer” value is listed as 100%. The Stability in solutions entry in the data set “Stability in solution” is on record as “not stable in solutions”. The LD50 with white mice is given as > 1500 mg/kg. In addition, the Solubility entry in data set [2] (DMSO, DMFA, dichloroethane, acetonitrile) was “highly soluble”; in data set [2] (hexane) it was “insoluble”.
